Experimental data from the supplement of paper PMC10307832.

Key:
Assay in all cases: relative viability (nuclei count vs DMSO), 5 days (fraction); higher = more cells survive
[1] = system: 201T
Procedure, shortened: (§1)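 A single step with final 0.05% Triton X-100, 1% formaldehyde and 1 ug/ml Hoechst fixed the cells and stained nuclei 5 days after treatment. Lung cancer cell lines in 1536-well plates had been treated by pin tool the day after seeding with one drug alone or a fixed anchor-drug dose plus five library-drug doses (not always all listed) in √10 steps, and nuclei were counted on 4× images. Relative viability is the ratio of nuclei in treated wells to nuclei in vehicle wells, taken as the median of duplicate plates.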

[2] = system: A-427
Procedure, shortened: as §1

[3] = system: COR-L23
Procedure, shortened: as §1

[4] = system: H3255
Procedure, shortened: as §1

[5] = system: HCC-44
Procedure, shortened: as §1

[6] = system: LC-2-ad
Procedure, shortened: as §1

[7] = system: LCLC-103H
Procedure, shortened: as §1

[8] = system: LCLC-97TM1
Procedure, shortened: as §1

[9] = system: LK-2
Procedure, shortened: as §1

[10] = system: LU99A
Procedure, shortened: as §1

[11] = system: NCI-H1563
Procedure, shortened: as §1

[12] = system: NCI-H1650
Procedure, shortened: as §1

[13] = system: NCI-H1793
Procedure, shortened: as §1

[14] = system: NCI-H2228
Procedure, shortened: as §1

[15] = system: NCI-H2347
Procedure, shortened: as §1

[16] = system: NCI-H23
Procedure, shortened: as §1

[17] = system: NCI-H460
Procedure, shortened: as §1

[18] = system: NCI-H596
Procedure, shortened: as §1

[19] = system: NCI-H727
Procedure, shortened: as §1

[20] = system: PC-14
Procedure, shortened: as §1

[21] = system: PC-3 [JPC-3]
Procedure, shortened: as §1

[22] = system: SW 1573
Procedure, shortened: as §1

Compound: O=c1cc(-c2cccc3c2Sc2ccccc2S3)oc(N2CCOCC2)c1 + CS(=O)(=O)N1CCN(Cc2cc3nc(-c4cccc5[nH]ncc45)nc(N4CCOCC4)c3s2)CC1 [Pictilisib] (partner 1 µM)
- relative viability ([1]; first compound 0.08 µM): 0.652
- relative viability ([1]; first compound 0.253 µM): 0.718
- relative viability ([1]; first compound 0.8 µM): 0.51
- relative viability ([1]; first compound 2.53 µM): 0.616
- relative viability ([1]; first compound 8 µM): 0.742
- relative viability ([2]; first compound 0.08 µM): 0.818
- relative viability ([2]; first compound 0.253 µM): 0.678
- relative viability ([2]; first compound 0.8 µM): 0.634
- relative viability ([2]; first compound 2.53 µM): 0.623
- relative viability ([2]; first compound 8 µM): 0.973
- relative viability ([3]; first compound 0.08 µM): 0.92
- relative viability ([3]; first compound 0.253 µM): 1.36
- relative viability ([3]; first compound 0.8 µM): 0.934
- relative viability ([3]; first compound 2.53 µM): 0.705
- relative viability ([3]; first compound 8 µM): 1.06
- relative viability ([4]; first compound 0.08 µM): 0.408
- relative viability ([4]; first compound 0.253 µM): 0.463
- relative viability ([4]; first compound 0.8 µM): 0.427
- relative viability ([4]; first compound 2.53 µM): 0.402
- relative viability ([4]; first compound 8 µM): 0.513
- relative viability ([5]; first compound 0.08 µM): 0.457
- relative viability ([5]; first compound 0.253 µM): 0.655
- relative viability ([5]; first compound 0.8 µM): 0.536
- relative viability ([5]; first compound 2.53 µM): 0.468
- relative viability ([5]; first compound 8 µM): 0.577
- relative viability ([6]; first compound 0.08 µM): 0.472
- relative viability ([6]; first compound 0.253 µM): 0.545
- relative viability ([6]; first compound 0.8 µM): 0.465
- relative viability ([6]; first compound 2.53 µM): 0.432
- relative viability ([6]; first compound 8 µM): 0.425
- relative viability ([7]; first compound 0.08 µM): 0.63
- relative viability ([7]; first compound 0.253 µM): 0.531
- relative viability ([7]; first compound 0.8 µM): 0.505
- relative viability ([7]; first compound 2.53 µM): 0.489
- relative viability ([7]; first compound 8 µM): 0.616
- relative viability ([8]; first compound 0.08 µM): 0.166
- relative viability ([8]; first compound 0.253 µM): 0.174
- relative viability ([8]; first compound 0.8 µM): 0.208
- relative viability ([8]; first compound 2.53 µM): 0.158
- relative viability ([8]; first compound 8 µM): 0.184
- relative viability ([9]; first compound 0.08 µM): 0.608
- relative viability ([9]; first compound 0.253 µM): 0.51
- relative viability ([9]; first compound 0.8 µM): 0.708
- relative viability ([9]; first compound 2.53 µM): 0.503
- relative viability ([9]; first compound 8 µM): 0.725
- relative viability ([10]; first compound 0.08 µM): 0.294
- relative viability ([10]; first compound 0.253 µM): 0.341
- relative viability ([10]; first compound 0.8 µM): 0.378
- relative viability ([10]; first compound 2.53 µM): 0.332
- relative viability ([10]; first compound 8 µM): 0.418
- relative viability ([11]; first compound 0.08 µM): 0.649
- relative viability ([11]; first compound 0.253 µM): 0.64
- relative viability ([11]; first compound 0.8 µM): 0.633
- relative viability ([11]; first compound 2.53 µM): 0.738
- relative viability ([11]; first compound 8 µM): 0.661
- relative viability ([12]; first compound 0.08 µM): 0.509
- relative viability ([12]; first compound 0.253 µM): 0.53
- relative viability ([12]; first compound 0.8 µM): 0.507
- relative viability ([12]; first compound 2.53 µM): 0.522
- relative viability ([12]; first compound 8 µM): 0.582
- relative viability ([13]; first compound 0.08 µM): 0.185
- relative viability ([13]; first compound 0.253 µM): 0.301
- relative viability ([13]; first compound 0.8 µM): 0.303
- relative viability ([13]; first compound 2.53 µM): 0.303
- relative viability ([13]; first compound 8 µM): 0.334
- relative viability ([14]; first compound 0.08 µM): 0.434
- relative viability ([14]; first compound 0.253 µM): 0.424
- relative viability ([14]; first compound 0.8 µM): 0.296
- relative viability ([14]; first compound 2.53 µM): 0.484
- relative viability ([14]; first compound 8 µM): 0.378
- relative viability ([15]; first compound 0.08 µM): 0.633
- relative viability ([15]; first compound 0.253 µM): 0.952
- relative viability ([15]; first compound 0.8 µM): 0.567
- relative viability ([15]; first compound 2.53 µM): 0.733
- relative viability ([15]; first compound 8 µM): 0.476
- relative viability ([16]; first compound 0.08 µM): 0.559
- relative viability ([16]; first compound 0.253 µM): 0.523
- relative viability ([16]; first compound 0.8 µM): 0.47
- relative viability ([16]; first compound 2.53 µM): 0.4
- relative viability ([16]; first compound 8 µM): 0.457
- relative viability ([17]; first compound 0.08 µM): 0.289
- relative viability ([17]; first compound 0.253 µM): 0.452
- relative viability ([17]; first compound 0.8 µM): 0.321
- relative viability ([17]; first compound 2.53 µM): 0.384
- relative viability ([17]; first compound 8 µM): 0.545
- relative viability ([18]; first compound 0.08 µM): 0.34
- relative viability ([18]; first compound 0.253 µM): 0.419
- relative viability ([18]; first compound 0.8 µM): 0.357
- relative viability ([18]; first compound 2.53 µM): 0.371
- relative viability ([18]; first compound 8 µM): 0.403
- relative viability ([19]; first compound 0.253 µM): 0.442
- relative viability ([19]; first compound 2.53 µM): 0.285
- relative viability ([19]; first compound 8 µM): 0.528
- relative viability ([20]; first compound 0.08 µM): 0.48
- relative viability ([20]; first compound 0.253 µM): 0.977
- relative viability ([20]; first compound 0.8 µM): 0.755
- relative viability ([20]; first compound 2.53 µM): 0.748
- relative viability ([20]; first compound 8 µM): 0.668
- relative viability ([21]; first compound 0.08 µM): 0.694
- relative viability ([21]; first compound 0.253 µM): 0.761
- relative viability ([21]; first compound 0.8 µM): 0.644
- relative viability ([21]; first compound 2.53 µM): 0.662
- relative viability ([21]; first compound 8 µM): 0.863
- relative viability ([22]; first compound 0.08 µM): 0.539
- relative viability ([22]; first compound 0.253 µM): 0.554
- relative viability ([22]; first compound 0.8 µM): 0.586
- relative viability ([22]; first compound 2.53 µM): 0.556
- relative viability ([22]; first compound 8 µM): 0.597
